Laboratory results published in BigSolDB 2.1.

Details: in formic acid

OC1OC[C@@H](O)[C@H](O)[C@H]1O (some centres undefined)
Details | solubility (mole fraction)
300.45 K | 0.13
301.85 K | 0.139
303.25 K | 0.146
305.15 K | 0.154
306.75 K | 0.161
308.15 K | 0.168
309.95 K | 0.175
311.65 K | 0.182
313.45 K | 0.191
315.75 K | 0.2
317.45 K | 0.208
320.35 K | 0.223
323.15 K | 0.237
324.85 K | 0.244
